One may read the IC50 as the midpoint of a concentration-inhibition curve.

Assay [1] concerns m^6 A in cellular mRNA of MOLM-13 cells. The assay is described as follows: m^6 A-mRNA LC-MS/MS assay (m^6 A cellular assay). It is filed as cell-based. The following applies: Homo sapiens, 24 hours incubation, LC-MS/MS of m^6 A/A in mRNA. On the procedure: m^6 A-mRNA LC-MS/MS Assay
5×10^6 MOLM-13 (DSMZ) cells were seeded into 10 cm dishes in RPMI 1640 media containing 10% fetal bovine serum and placed in a humidified tissue culture incubator at 37° C. overnight. Compounds were resuspended in 100% DMSO and dosed into each dish at a fixed concentration to comprise an 8-point dose response with a 4-fold serial dilution ranging from 25 μM to 1.5 nM in 0.25% DMSO final and allowed to incubate for 24 hours in a humidified tissue culture incubator at 37° C. Cells were harvested by centrifugation followed by mRNA extraction using DTRECT Dynabeads mRNA DTRECT kit (Life Technologies). mRNA was quantified on NanoDrop spectrophotometer (Thermo Fisher Scientific) and digested into single nucleosides using Nucleoside Digestion Mix (New England Biolabs). Nucleosides are quantified with retention time on a BEH […] column (Waters) and the nucleoside-to-base ion mass transition of 282.1-150.1 (m^6 A) and 268-136 (A) on an API 6500+ triple quadrupole mass spectrometer. Quantification is performed in comparison with the standard curve, obtained from pure nucleoside standards (Selleck Chemicals) running with the same batch of samples. Percentage m^6 A in cellular mRNA is calculated as 100*(m^6 A/A).

The target of another assay is PRMT5-MEP50 (Homo sapiens, UniProt O14744). The assay is described as follows: PRMT5 assay (3H-SAM flashplate scintillation). Type of assay: biochemical. To be noted: PRMT5-MEP50 2.5 nM, histone H4 peptide 100 nM, 3H-SAM 250 nM, 60 min. In short, it runs like this: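 Radiometric methyltransferase read-out: after 60 min reaction, excess unlabelled SAM (15 μM) stops turnover and biotinylated H4 peptide (100 nM) carrying 3H-methyl from 250 nM 3H-SAM is captured on streptavidin flashplates (2 h, 25° C) for scintillation counting. Enzyme, 2.5 nM PRMT5-MEP50, was preincubated 5 min with compound in pH 8.0 Tris buffer with DTT and Tween.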

The target of another assay is METTL3/METTL14 (Homo sapiens, UniProt Q86U44). The assay is described as follows: METTL3-14 standard enzyme assay (3H-SAM flashplate scintillation). It is filed as biochemical. To be noted: METTL3/METTL14 2.5 nM, RNA 100 nM, 3H-SAM 100 nM, 30 min. In short, it runs like this:
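Radiometric methylation readout: biotinylated RNA substrate UCUGGACUAAA and 3H-SAM, each 100 nM final, reacted 30 min at ambient temperature with 2.5 nM enzyme complex after 5 min compound preincubation (HEPES pH 7.5 buffer, KCl, MgCl2, DTT). Excess unlabelled SAM (15 μM) stopped reactions before streptavidin flashplate capture.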

In assay [2] the test system is MOLM-13 cells. The assay is described as follows: MOLM-13 96 Hour cell proliferation assay (Cell Titer-Glo). Type of assay: cell-based. To be noted: Homo sapiens. How it is done:
MOLM-13 96 Hour Cell Proliferation Assay
MOLM-13 (DSMZ) cells were seeded at 600 cells per well in a volume of 44 μL in a Greiner Bio-One CELLSTAR™ 384 Well Polystyrene Cell Culture clear bottom microplate in RPMI 1640 media containing 10% fetal bovine serum using a Multidrop Combi (ThermoFisher Scientific). Cells were incubated overnight at 37° C. in a humidified tissue culture incubator. To prevent evaporation or to reduce edge effect, add 50 μL or more H2O to an empty plate, cover, and place on top of the cell plates. The Mosquito® HTS Liquid Handler was used to make a compound/media intermediate plate by aliquoting 1 μL of compound from the initial compound dilution plate (concentrations ranging from 10.0 mM to 38.0 nM in 100% DMSO) into Bio-One 384-well polypropylene conical bottom microplate containing 49 μL of media containing the appropriate serum (50-fold dilution, 2% DMSO, compound concentrations ranging from 200.0 μM and […]). The Apricot liquid handling system was used to transfer 6.2 μL compounds from the intermediate plate into the seeding plate containing 44 μL cells (8-fold dilution spanning concentrations 25.0 μM to […], 0.25% DMSO final), and placed in a humidified tissue culture incubator at 37° C. After 96 hours, 25 μL of Cell Titer-Glo reagent (Promega) was added to each well using an Integra liquid handling system. The plate was protected from light using TopSeal-A (Black) film over the entire plate, added White Bottom seal film on the bottom of the entire plate for a better reading on the Envision, and placed on an IKA plate shaker for at 300 rpm for 10 minutes at room temperature. The plate was read on an EnVision plate reader (Perkin Elmer) using the Ultra Sensitive Luminescence protocol. Data analysis was performed by normalizing the raw luminescence units to an average of the positive control values for staurosporine (100% cell death) and the negative control values for DMSO (0% cell death). An IC50 was calculated using a 4-parameter logistic nonlinear regression model in GraphPad Prism.
For orientation: In ATP-based viability assays light output follows the ATP content of the culture.

The subject of assay [3] is MOLM-13 cells. The assay is described as follows: MOLM-13 48 Hour cell proliferation assay (Cell Titer-Glo). Type of assay: cell-based. The following applies: Homo sapiens. On the procedure: MOLM-13 48 Hour Cell Proliferation Assay
MOLM-13 (DSMZ) cells were seeded at 1000 cells per well in a volume of 44 μL in a Falcon 384-well tissue culture treated clear bottom microplate in RPMI 1640 media containing 10% fetal bovine serum using a Multidrop Combi (ThermoFisher Scientific). Cells were incubated overnight at 37° C. in a humidified tissue culture incubator. The Mosquito® HTS Liquid Handler was used to make a compound/media intermediate plate by aliquoting […] of compound from the initial compound dilution plate (concentrations ranging from 10.0 mM to 38.0 nM in 100% DMSO) into a V bottom 384-well screen matrix plate containing 49 µL of media containing the appropriate serum (50-fold dilution, 2% DMSO). The Apricot liquid handling system was used to transfer […] compounds from the intermediate plate into the Falcon 384-well tissue culture plate containing 44 μL cells (10-point, 4-fold dilution spanning concentrations 25.0 μM to […], 0.25% DMSO final), and placed in a humidified tissue culture incubator at 37° C. After 48 hours, 25 μL of Cell Titer-Glo reagent (Promega) was added to each well using a Multidrop Combi. The plate was protected from light and placed on an IKA plate shaker for at 300 rpm for 10 minutes at room temperature. The plate was read on an EnVision plate reader (Perkin Elmer) using the Ultra Sensitive Luminescence protocol. Data analysis was performed by normalizing the raw luminescence units to an average of the positive control values for staurosporine (100% cell death) and the negative control values for DMSO (0% cell death). An IC50 was calculated using a 4-parameter logistic nonlinear regression model in GraphPad Prism.

In a further assay the target is METTL1/WDR4 (Homo sapiens, UniProt Q9UBP6). The assay is described as follows: METTL1 assay (3H-SAM flashplate scintillation). It is filed as biochemical. The following applies: METTL1/WDR4 6.25 nM, RNA 25 nM, 3H-SAM 60 nM, 20 min; read-out: METTL1 IC50. An outline of the steps:
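Radiometric methyltransfer by METTL1/WDR4 (6.25 nM f.c., 5 min preincubation) at ambient temperature in HEPES pH 7.5, KCl, MgCl2, DTT; started with 25 nM 3′-biotinylated RNA and 60 nM 3H-SAM, run 20 min, quenched with 15 μM cold SAM. Product captured on streptavidin flashplates (2 h, 25° C), counted by scintillation.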

Some results are limits rather than exact numbers.

Chain of PRMT5-MEP50 (O14744 whole entry): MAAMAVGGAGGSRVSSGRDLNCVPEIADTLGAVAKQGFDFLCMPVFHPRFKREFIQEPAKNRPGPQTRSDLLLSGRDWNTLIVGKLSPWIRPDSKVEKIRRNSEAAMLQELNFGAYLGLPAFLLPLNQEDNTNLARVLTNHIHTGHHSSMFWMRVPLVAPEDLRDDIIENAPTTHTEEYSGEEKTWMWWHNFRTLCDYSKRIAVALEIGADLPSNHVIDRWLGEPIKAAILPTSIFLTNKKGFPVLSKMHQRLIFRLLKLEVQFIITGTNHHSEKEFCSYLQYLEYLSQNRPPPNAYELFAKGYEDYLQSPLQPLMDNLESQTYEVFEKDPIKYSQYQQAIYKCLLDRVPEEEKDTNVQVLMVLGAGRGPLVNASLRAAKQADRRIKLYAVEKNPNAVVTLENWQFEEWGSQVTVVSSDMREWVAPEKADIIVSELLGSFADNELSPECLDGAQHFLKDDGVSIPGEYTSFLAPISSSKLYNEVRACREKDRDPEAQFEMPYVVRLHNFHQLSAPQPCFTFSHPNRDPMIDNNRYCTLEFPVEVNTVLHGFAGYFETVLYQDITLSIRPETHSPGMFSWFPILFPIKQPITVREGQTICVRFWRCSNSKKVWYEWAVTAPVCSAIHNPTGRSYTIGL
Chain of PRMT5-MEP50 (Q9BQA1 whole entry partner): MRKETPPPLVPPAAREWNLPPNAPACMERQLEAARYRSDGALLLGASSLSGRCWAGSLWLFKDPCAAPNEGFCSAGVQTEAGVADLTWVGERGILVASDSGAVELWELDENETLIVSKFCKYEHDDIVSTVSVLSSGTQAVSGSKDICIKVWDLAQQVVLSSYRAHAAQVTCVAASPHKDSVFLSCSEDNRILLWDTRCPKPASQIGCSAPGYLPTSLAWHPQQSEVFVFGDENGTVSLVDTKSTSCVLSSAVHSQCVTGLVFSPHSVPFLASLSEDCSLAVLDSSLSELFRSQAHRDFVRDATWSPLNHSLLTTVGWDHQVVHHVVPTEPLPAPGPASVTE
Chain of METTL1/WDR4 (Q9UBP6 whole entry, species assumed): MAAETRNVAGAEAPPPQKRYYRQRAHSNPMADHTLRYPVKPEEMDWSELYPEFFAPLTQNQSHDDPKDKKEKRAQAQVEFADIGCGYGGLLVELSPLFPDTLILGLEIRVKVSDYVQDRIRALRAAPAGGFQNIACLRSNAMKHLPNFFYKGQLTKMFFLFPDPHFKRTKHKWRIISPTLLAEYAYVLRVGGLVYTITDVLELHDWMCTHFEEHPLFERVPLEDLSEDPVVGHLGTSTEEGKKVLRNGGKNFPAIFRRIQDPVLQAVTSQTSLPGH
Chain of METTL1/WDR4 (P57081 whole entry partner, species assumed): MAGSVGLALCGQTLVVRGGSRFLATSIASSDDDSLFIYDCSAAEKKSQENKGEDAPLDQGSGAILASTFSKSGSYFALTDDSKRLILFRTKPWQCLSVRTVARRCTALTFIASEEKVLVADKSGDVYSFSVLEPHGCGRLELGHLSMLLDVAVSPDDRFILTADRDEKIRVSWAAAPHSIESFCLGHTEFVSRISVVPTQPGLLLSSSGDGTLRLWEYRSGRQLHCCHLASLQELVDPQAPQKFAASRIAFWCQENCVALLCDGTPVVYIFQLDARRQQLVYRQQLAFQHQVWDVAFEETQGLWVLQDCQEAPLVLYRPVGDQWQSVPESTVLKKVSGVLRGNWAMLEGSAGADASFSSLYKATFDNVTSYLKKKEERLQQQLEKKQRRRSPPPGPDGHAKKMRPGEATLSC
Chain of METTL3/METTL14 (Q86U44 whole entry, species assumed): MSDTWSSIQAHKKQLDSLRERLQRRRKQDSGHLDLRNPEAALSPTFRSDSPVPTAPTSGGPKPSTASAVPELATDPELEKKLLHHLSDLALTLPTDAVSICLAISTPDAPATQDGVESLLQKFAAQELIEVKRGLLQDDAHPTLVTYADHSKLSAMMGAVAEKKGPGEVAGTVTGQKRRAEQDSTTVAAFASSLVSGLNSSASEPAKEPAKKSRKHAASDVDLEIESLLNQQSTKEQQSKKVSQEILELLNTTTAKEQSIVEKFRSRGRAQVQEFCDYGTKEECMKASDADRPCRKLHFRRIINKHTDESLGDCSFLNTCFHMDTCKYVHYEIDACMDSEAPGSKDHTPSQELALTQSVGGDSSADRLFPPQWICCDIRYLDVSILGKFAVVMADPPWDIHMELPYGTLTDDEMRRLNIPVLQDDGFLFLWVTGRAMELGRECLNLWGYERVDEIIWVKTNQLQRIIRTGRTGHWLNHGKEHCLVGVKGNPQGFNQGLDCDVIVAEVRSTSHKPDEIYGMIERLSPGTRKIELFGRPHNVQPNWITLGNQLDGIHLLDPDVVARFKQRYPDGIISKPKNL
Chain of METTL3/METTL14 (Q9HCE5 whole entry partner, species assumed): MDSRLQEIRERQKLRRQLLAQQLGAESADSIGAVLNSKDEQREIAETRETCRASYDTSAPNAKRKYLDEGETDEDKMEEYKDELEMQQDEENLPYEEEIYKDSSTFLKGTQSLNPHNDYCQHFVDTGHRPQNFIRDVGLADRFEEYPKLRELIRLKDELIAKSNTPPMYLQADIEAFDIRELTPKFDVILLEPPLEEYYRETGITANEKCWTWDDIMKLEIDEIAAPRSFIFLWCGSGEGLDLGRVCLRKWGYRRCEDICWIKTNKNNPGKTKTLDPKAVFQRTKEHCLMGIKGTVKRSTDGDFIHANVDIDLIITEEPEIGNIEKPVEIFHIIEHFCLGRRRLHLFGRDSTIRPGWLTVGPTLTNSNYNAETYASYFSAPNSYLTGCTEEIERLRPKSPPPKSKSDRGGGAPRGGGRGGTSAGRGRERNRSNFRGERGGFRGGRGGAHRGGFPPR

Regarding `Cn1ccc(-c2cn(-c3cncc(CCc4ccc5ccc(N6CCC6)nc5c4)c3)c3ncnc(N)c23)n1` [Compound I-104], the 50% inhibitory concentration (IC50) in assay [1] was below 1000 nM; on PRMT5-MEP50, above 1000 nM; against METTL3/METTL14, below 10 nM; in the assay with MOLM-13 cells [2], below 1000 nM.
As for `CCc1cc(NCCOC)c2ccc(OCc3cncc(-c4c[nH]c5c(N)ncnc45)c3)cc2n1` [Compound I-7], the IC50 in the assay with MOLM-13 cells [3] is at least 10 µM; at PRMT5-MEP50 it was above 1000 nM; against METTL3/METTL14, below 10 nM; at METTL1/WDR4, above 1000 nM.
With `CCc1cc(NCCN(C)C)c2ccc(OCc3cncc(-n4ccc5c(N)ncnc54)c3)cc2n1` [Compound I-15], the concentration for half-maximal inhibition (IC50) in the assay with MOLM-13 cells [3] is 1 to 10 µM; at PRMT5-MEP50, above 1000 nM; against METTL3/METTL14 it was below 10 nM; on METTL1/WDR4, above 1000 nM.
`CC(C)c1cc(N2CCNCC2)c2ccc(OCc3cncc(-n4ccc5c(N)ncnc54)c3)cc2n1` [Compound I-95]: the IC50 in assay [1] was 1000 to 10000 nM; against PRMT5-MEP50, above 1000 nM; on METTL3/METTL14, below 10 nM; at METTL1/WDR4, above 1000 nM; in the assay on MOLM-13 cells [2], below 1000 nM.
With `CNc1cc(CCCN2CCOCC2)c2ccc(OCc3cncc(-n4ccc5c(N)ncnc54)c3)cc2n1` [Compound I-233], the IC50 was at least 10000 nM in assay [1], above 1000 nM against PRMT5-MEP50, below 10 nM against METTL3/METTL14 and 1000 to 10000 nM with MOLM-13 cells [2].
The corresponding values for `CCc1cc(N2CCOCC2)c2ccc(OCc3cncc(-n4ccc5c(N)ncnc54)c3)cc2n1` [Compound I-108] are 1000 to 10000 nM, above 1000 nM, below 10 nM and 1000 to 10000 nM.
Turning to `CN(C)CCNc1cc(C2CCC2)nc2cc(OCc3cncc(-n4ccc5c(N)ncnc54)c3)ccc12` [Compound I-92], the 50% inhibitory concentration (IC50) in assay [1] is 1000 to 10000 nM; at PRMT5-MEP50, above 1000 nM; at METTL3/METTL14, below 10 nM; at METTL1/WDR4, above 1000 nM; in the assay with MOLM-13 cells [2], below 1000 nM.
Regarding `Nc1ncnc2c1c([C@@H]1CCCO1)cn2-c1cncc(COc2ccc3ccc(N4CCC4)nc3c2)c1` [Compound I-145], the half-inhibitory concentration (IC50) in assay [1] is below 1000 nM; at METTL3/METTL14, below 10 nM; with MOLM-13 cells [2], below 1000 nM.
In the case of `CNc1ccc2ccc(OCc3cncc(-n4cc(-c5ccc(CNCCS(C)(=O)=O)o5)c5c(N)ncnc54)c3)cc2n1` [Compound I-236], the IC50 was 1000 to 10000 nM in assay [1], below 10 nM against METTL3/METTL14 and 1000 to 10000 nM with MOLM-13 cells [2].
Take `CCc1cc(NCCN(C)C)c2c(F)cc(OCc3cncc(-n4cc(-c5ccn(C)n5)c5c(N)ncnc54)c3)cc2n1` [Compound I-230]: the IC50 is at least 10000 nM in assay [1], below 10 nM against METTL3/METTL14 and 1000 to 10000 nM in the assay on MOLM-13 cells [2].
The matching figures for `CCc1cc(N(C)C2CC2)c2ccc(OCc3cncc(-n4cc(-c5ccn(C)n5)c5c(N)ncnc54)c3)cc2n1` [Compound I-136]: 1000 to 10000 nM, below 10 nM and below 1000 nM.
For `CCNc1ccc2ccc(CCc3cncc(-n4cc(-c5ccn(C)n5)c5c(N)ncnc54)c3)cc2n1` [Compound I-106], the IC50 in assay [1] was below 1000 nM; against PRMT5-MEP50 it was above 1000 nM; on METTL3/METTL14 it was below 10 nM; in the assay on MOLM-13 cells [2], below 1000 nM.
As for `CCc1cc(NC)c2ccc(OCc3cncc(-n4cc(-c5ccn(C)n5)c5c(N)ncnc54)c3)cc2n1` [Compound I-135], the IC50 is 1000 to 10000 nM in assay [1], below 10 nM against METTL3/METTL14 and below 1000 nM in the assay with MOLM-13 cells [2].
`CCc1cc(NCCN(C)C)c2c(F)cc(CCc3cncc(-n4cc(-c5ccn(C)n5)c5c(N)ncnc54)c3)cc2n1` [Compound I-227]: the IC50 in assay [1] is 1000 to 10000 nM; against METTL3/METTL14, below 10 nM; with MOLM-13 cells [2], below 1000 nM.
In the case of `CCc1cc(N(C)CCN(C)C)c2ccc(CCc3cncc(-n4cc(-c5ccn(C)n5)c5c(N)ncnc54)c3)cc2n1` [Compound I-155], the IC50 in assay [1] was 1000 to 10000 nM; at METTL3/METTL14, below 10 nM; in the assay on MOLM-13 cells [2] it was below 1000 nM.

These data come from patent publication US20220372040A1, “METTL3 MODULATORS” (Accent Therapeutics, Inc., priority 2020, published 2022).
